Values of other authors as cited in patent US20110123612A1, “PHARMACEUTICAL PREPARATION CONTAINING NON-DIHYDROPYRIDINE CALCIUM CHANNEL BLOCKER AND ANGIOTENSIN-2 RECEPTOR BLOCKER” (priority 2008, published 2011).

Assays:
[1] = active losartan molecule released into blood
[2] = active form of losartan

CCCCc1nc(Cl)c(CO)n1Cc1ccc(-c2ccccc2-c2nn[nH]n2)cc1 [losartan]
time to peak blood concentration [1]: ≤ 1 h | anti-hypertensive effects of the active form [2]: ≥ 10 fold
